The text below walks through data of PMC9820559, “Investigation of the Fuzzy Complex between RSV Nucleoprotein and Phosphoprotein to Optimize an Inhibition Assay by Fluorescence Polarization” (International Journal of Molecular Sciences, 2022).

Usually IC50 stands for the concentration that gives 50% inhibition. In general, Ki refers to the dissociation constant of the complex between target and ligand, obtained from inhibition or displacement. As usually defined, the Kd is the equilibrium constant for the complex coming apart.

Several values for one entry are separate records, joined by “and”; a condition that tells them apart may be missing. Identical values can stand only once. Like-named read-outs stand apart in the source and are kept apart here. Square brackets hold non-standard residues; d marks the D form. Peptide text beside a SMILES is read from it. * marks the point of attachment. BODIPY(FL) = CC1=CC(C)=[N+]2C1=Cc1ccc(CCC(=O)*)n1[B-]2(F)F; FITC = O=C1OC2(c3ccc(O)cc3Oc3cc(O)ccc32)c2ccc(NC(=S)*)cc21; pS = N[C@@H](COP(=O)(O)O)C(=O)O

Data set [1] in a line: Chemical stability of fluorescently labeled P peptides. The data set is classed as physicochemical. Conditions: slightly acidic conditions / HPLC purification and FP assay conditions. How it is done: We started by labeling the pP11 peptide with N-terminally attached BODIPY FL, as described by Shapiro at al.. […] We then produced F11, another labelled peptide P11, by changing the fluorescent label to fluorescein-5-thiourea (FTU) by coupling with fluorescein-5-isothiocyanate (FITC). […] To directly compare FP and NMR data, we made measurements in MES pH 6.5 buffer. Brij-35 detergent (0.01% w/v) was added below its critical micellar concentration (0.11% w/v) to prevent spurious binding of the peptide to the reading plates. […] We tested buffer with and without salt.
Such derivatives were recently described as tags for bioconjugation, but, to our knowledge, not for an FP assay. […] To assess the properties of BODIPY FL as a fluorescent label for P peptides, we produced a new series of eight dicyano BODIPY FL-labeled (BCNn) peptides of variable length (Table 4) and tested them for N-RNA binding.

Data set [2] addresses T1, RSV N-RNA complex (Human respiratory syncytial virus A, UniProt P03418).
T1 construct: Full-length N was produced by co-expression with the C-terminal domain of RSV P protein in E. coli BL21(DE3); made in house; host or cells: E. coli BL21(DE3), co-transformed with pET-N and pGEX-P(161–241)
Description: Fluorescence polarization inhibition of N-RNA binding to fluorescent probes. The text has this: We next performed inhibition experiments for the F11-(N-RNA) complex by M76 (Figure 4B). FP values decreased with increasing competitor concentration. At saturation, FP nearly reached the value of free F11, showing that the F11 peptide could be nearly completely displaced. Since the same concentration range was used for NNTD and N-RNA, poor solubility of M76 can be ruled out to explain the saturation observed before complete displacement of F11 in the presence NNTD (Figure 3C). This reinforces the hypothesis of a second binding site on NNTD, outside the canonical P-binding site. […]
To probe the potency of M76 as an inhibitor, we carried out competition experiments with the M76 molecule and several BCNn peptides. M76 was able to displace the fluorescent probes from N-RNA, and inhibition curves were obtained (Figure 8E). Since we used different N concentrations to have similar dynamic ranges of FP for the series of fluorescent peptides, we cannot directly compare M76 IC50s. However, Kis may be compared.
(§1) Fluorescence polarization measurements were carried out on a Paradigm Detection Platform (Beckman Coulter, Brea, CA, USA) operating with a microplate reader, a fluorescein detection cartridge (excitation range 485/20 nm, emission range 535/25 nm for both parallel and perpendicular components) and the SpectraMax Pro 6.1 software (Molecular Devices, San Jose, CA, USA). Samples were placed in polystyrene black flat bottom 96-well microplates (Cellstar, Greiner bio-one, Frickenhausen, Germany) with 20 µL final volume in each well. If not stated otherwise, the final concentration of fluorescent ligands was 200 nM. The buffer was either 20 mM MES pH 6.5, salt-free or with 250 mM NaCl, or 20 mM Tris pH 8.0 salt-free or with 100 mM NaCl, supplemented with 0.01% Brij-35. Mixing was done using the corresponding plate reader option. The temperature was set to 20 °C. Data were recorded in top reading mode. Measurements were done in triplicate and after an incubation time of 30 min, if not indicated otherwise. Fluorescence polarization (FP) in mFP units was determined from the parallel (I∥) and perpendicular (I⊥) components of the emitted light according to Equation (4). A grating factor G of 1.2 was determined using 1 nM fluorescein in 1 mM NaOH and assuming a theoretical FP of 27 mFP [48]. Background signal was measured from wells containing only buffer, and the mean value was subtracted from each I∥ and I⊥ component. (4) FP (mP)=1000×(I∥−G∗I⊥)/(I∥+G×I⊥)
To assess inhibition of a complex between a fluorescent probe and N protein by peptides or the M76 molecule, the concentration of N was set to work with an FP range comprised between FPmin and ~80% FPmax. Peptides were added from 1 or 2 mM stock solution in water at neutral pH. M76 was added from 10 or 20 mM stock solutions in ethanol or in DMSO. […] Inhibition data were fitted with Origin 7, and in parallel with the Excel solver module. All data were compatible with an absence of cooperativity. FPmax and FPmin were fitted, and the maximal inhibition %i,max was set to 100%. (11) %i=100×[1−(FP−FPmin)/(FPmax−FPmin)] (12) %i=%i,max×[inhibitor]/[inhibitor]+IC50
Inhibition constants Ki were calculated on the IC50-to-Ki converter for a protein-ligand-inhibitor system (https://bioinfo-abcc.ncifcrf.gov/IC50_Ki_Converter/index.php, accessed on 24 August 2022), assuming a competitive mechanism (Equation (13)). This tool takes into account the free concentrations of protein and ligand. (13) Ki=(IC50−[protein]/2)/([peptide]/Kd+1)
For orientation: In fluorescence polarisation assays a small probe gives low polarisation when free and higher when bound to something large.

Data set [3] deals with T2, RSV NNTD (Human respiratory syncytial virus A, UniProt P03418).
T2 construct: The N-terminal domain NNTD (residues 31–252), containing a C-terminal 6x histidine tag; 6xHis (C); made in house; host or cells: E. coli BL21(DE3)
Description: Fluorescence polarization inhibition of NNTD binding to F11. How it is done:
We therefore tested competition between M76 and F11 by FP. Measurements were done in salt-free buffer to take advantage of the higher F11-NNTD affinity. The concentration of NNTD was set to 5 µM to benefit from a high range of FP values, comprised between FPmin and ~80% FPmax. […] We fitted the data with a Hill equation (Equation (12)), assuming that the maximal inhibition of F11 binding to the canonical site by M76 was obtained at saturation.
Fluorescence polarization measurements were carried out on a Paradigm Detection Platform (Beckman Coulter, Brea, CA, USA) operating with a microplate reader, a fluorescein detection cartridge (excitation range 485/20 nm, emission range 535/25 nm for both parallel and perpendicular components) and the SpectraMax Pro 6.1 software (Molecular Devices, San Jose, CA, USA). […] Mixing was done using the corresponding plate reader option. […] Data were recorded in top reading mode. […] Fluorescence polarization (FP) in mFP units was determined from the parallel (I∥) and perpendicular (I⊥) components of the emitted light according to Equation (4). A grating factor G of 1.2 was determined using 1 nM fluorescein in 1 mM NaOH and assuming a theoretical FP of 27 mFP [48]. Background signal was measured from wells containing only buffer, and the mean value was subtracted from each I∥ and I⊥ component. […]

In data set [4] the target is T1, RSV N-RNA complex. Description: biochemical. It counts as binding. Conditions: Kd, Fn peptides 200 nM, Tris pH 8.0 without salt; single site binding model. The protocol: We carried out FP measurements using the fluorescent F11 peptide and N-RNA complex. […] No salt was added to promote high affinity.
We first measured binding of Fn peptides (200 nM) to N-RNA in Tris buffer by FP (Figure 5A,B). […] We fitted the data with ΔFPmax and Kd as parameters.
We therefore measured fluorescein FP in the presence of N-RNA. […] To test if fluorescein binds to the P-binding site on the N-RNA, we carried out a competition experiment with M76 (Figure 6C).
We first performed FP measurements in salt-free Tris pH 8 buffer (Figure 8A). We measured binding curves using 200 nM of fluorescent peptides.
as §1
We assumed that the measured fluorescence polarization FP is a linear combination of the FP of the fluorescent probe in the absence of N protein (FPmin) and the FP of N-bound fluorescent probe (FPmax), weighted by the molar fraction. The molar fraction x = [P]bound/[P]0 can then be expressed as a ratio of FP differences (Equation (8)). (8) x=(FP−FPmin)/(FPmax−FPmin)=∆FP/∆FPmax
To determine the Kd value of a complex between a fluorescent probe and N protein, a series of samples with constant probe concentration and varying N concentration was measured. FP binding curves were fitted with a single binding site model and a 1:1 stoichiometry.

T1 sequence (P03418 whole entry, looked up, the tested form may be a part, one chain of several): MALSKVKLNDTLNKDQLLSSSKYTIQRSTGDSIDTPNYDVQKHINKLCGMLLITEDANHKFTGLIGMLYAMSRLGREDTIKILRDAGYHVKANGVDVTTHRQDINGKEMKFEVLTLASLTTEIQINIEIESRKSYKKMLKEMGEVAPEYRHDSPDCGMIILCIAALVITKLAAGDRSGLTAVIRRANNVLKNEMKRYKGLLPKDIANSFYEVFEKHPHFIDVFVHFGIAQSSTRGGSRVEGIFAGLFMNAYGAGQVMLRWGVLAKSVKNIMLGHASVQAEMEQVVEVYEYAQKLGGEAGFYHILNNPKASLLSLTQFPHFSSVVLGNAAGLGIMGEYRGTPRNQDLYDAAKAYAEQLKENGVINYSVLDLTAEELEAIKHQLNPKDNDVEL
T2 sequence (P03418 31-252): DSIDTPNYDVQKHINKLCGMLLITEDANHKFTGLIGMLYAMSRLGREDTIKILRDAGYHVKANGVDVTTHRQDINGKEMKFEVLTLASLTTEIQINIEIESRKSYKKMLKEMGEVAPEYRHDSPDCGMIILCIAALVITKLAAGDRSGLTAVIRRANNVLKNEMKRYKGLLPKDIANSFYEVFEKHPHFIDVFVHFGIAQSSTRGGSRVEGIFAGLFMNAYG

`Cc1cc(C)n2c1C=C1C=CC(CCC(=O)N[C@@H](CC(=O)O)C(=O)N[C@@H](COP(=O)(O)O)C(=O)N[C@@H](CC(=O)O)C(=O)N[C@@H](CC(N)=O)C(=O)N[C@@H](CC(=O)O)C(=O)N[C@@H](CC(C)C)C(=O)N[C@@H](COP(=O)(O)O)C(=O)N[C@@H](CC(C)C)C(=O)N[C@@H](CCC(=O)O)C(=O)N[C@@H](CC(=O)O)C(=O)N[C@@H](Cc3ccccc3)C(=O)O)=[N+]1[B-]2(F)F` [BF2pP11] ({BODIPY(FL)}-D[pS]DNDL[pS]LEDF-OH): the chemical stability result in data set [1] is recorded as “prone to degradation”.
Regarding `O=C(O)c1cc(C(=O)O)n(Cc2ccc(Cl)cc2Cl)n1` [M76, 1-(2,4-dichlorobenzyl)-1H-pyrazole-3,5-dicarboxylic acid], the IC50 in data set [2] (fluorescent probe F7E 200 nM, 10 µM N-RNA, Tris pH 8 without salt, read-out: IC50) was 48 ± 5 µM; in data set [2] (fluorescent probe F11 200 nM, 10 µM N-RNA, Tris pH 8 without salt, read-out: IC50) it was 12.6 µM and 13 µM; in data set [2] (fluorescent probe fluorescein 1 200 nM, 20 µM N-RNA, read-out: M76 IC50), 27 ± 2 µM; in data set [2] (fluorescent probe fluorescein ethyl ester 3 200 nM, 20 µM N-RNA, read-out: M76 IC50), 65 ± 9 µM; in data set [2] (fluorescent probe fluorescein methyl ester 2 200 nM, 20 µM N-RNA, read-out: M76 IC50), 46 ± 7 µM; in data set [2] (probe BCN5E 200 nM, [N-RNA] 2 µM, Tris pH 8, read-out: Fitted IC50), 7 ± 0.6 µM. Besides, the IC50 turned out to be 26 ± 2 µM in data set [2] (probe BCN5E 200 nM, [N-RNA] 20 µM, Tris pH 8, read-out: Fitted IC50); 2.7 ± 0.2 µM in data set [2] (probe BCN6E 200 nM, [N-RNA] 2 µM, Tris pH 8, read-out: Fitted IC50); 14 ± 1 µM in data set [2] (probe BCN6E 200 nM, [N-RNA] 10 µM, Tris pH 8, read-out: Fitted IC50); 4.5 ± 0.4 µM in data set [2] (probe BCN8E 200 nM, [N-RNA] 2 µM, Tris pH 8, read-out: Fitted IC50); 13 ± 2 µM in data set [2] (probe BCN8E 200 nM, [N-RNA] 5 µM, Tris pH 8, read-out: Fitted IC50); 8.9 ± 0.6 µM in data set [2] (probe BCN10EE 200 nM, [N-RNA] 2 µM, Tris pH 8, read-out: Fitted IC50). Further, the IC50 in data set [2] (probe BCN10EE 200 nM, inhibitor M76, [N-RNA] 1 µM, Tris pH 8, read-out: Fitted IC50) worked out at 8.5 ± 0.6 µM; in data set [2] (probe BCN11SE 200 nM, [N-RNA] 5 µM, Tris pH 8, read-out: Fitted IC50) it was 17 ± 2 µM; in data set [3], 28 ± 5 µM. The Ki was 8 µM in data set [2] (fluorescent probe F7E 200 nM, 10 µM N-RNA, from IC50 and Kd 2.5 µM, read-out: Ki); 3 µM in data set [2] (fluorescent probe F11 200 nM, 10 µM N-RNA, from IC50 and Kd 7.6 µM with IC50-to-Ki server, read-out: Ki); 13 µM in data set [2] (fluorescent probe fluorescein 1, 20 µM N-RNA, from IC50 and Kd, read-out: M76 Ki); 50 µM in data set [2] (fluorescent probe fluorescein ethyl ester 3, 20 µM N-RNA, from IC50 and Kd, read-out: M76 Ki); 32 µM in data set [2] (fluorescent probe fluorescein methyl ester 2, 20 µM N-RNA, from IC50 and Kd, read-out: M76 Ki); 4.8 µM in data set [2] (probe BCN5E, [N-RNA] 2 µM, IC50-to-Ki server, read-out: Ki). The Ki in data set [2] (probe BCN5E, [N-RNA] 20 µM, IC50-to-Ki server, read-out: Ki) is 3.6 µM; in data set [2] (probe BCN5E, [N-RNA] 2 and 20 µM, read-out: Ki values for inhibition of BCN5E), 3.6 to 4.8 µM; in data set [2] (probe BCN6E, [N-RNA] 2 µM, IC50-to-Ki server, read-out: Ki), 0.7 µM; in data set [2] (probe BCN6E, [N-RNA] 10 µM, IC50-to-Ki server, read-out: Ki), 1.1 µM; in data set [2] (probe BCN8E, [N-RNA] 2 µM, IC50-to-Ki server, read-out: Ki) it was 1.3 µM; in data set [2] (probe BCN8E, [N-RNA] 5 µM, IC50-to-Ki server, read-out: Ki), 2 µM. Besides, the Ki came out at 0.5 µM in data set [2] (probe BCN10EE, [N-RNA] 2 µM, IC50-to-Ki server, read-out: Ki); 1.1 µM in data set [2] (probe BCN10EE, inhibitor M76, [N-RNA] 1 µM, IC50-to-Ki server, read-out: Ki); 1.8 µM in data set [2] (probe BCN11SE, [N-RNA] 5 µM, IC50-to-Ki server, read-out: Ki); 2.5 µM in data set [3].
Regarding `CC(C)C[C@H](NC(=O)[C@H](CO)NC(=O)[C@H](CC(C)C)NC(=O)[C@H](CC(=O)O)NC(=O)[C@H](CC(N)=O)NC(=O)[C@H](CC(=O)O)NC(=O)[C@H](CO)NC(=O)[C@H](CC(=O)O)NC(=S)Nc1ccc2c(c1)C(=O)OC21c2ccc(O)cc2Oc2cc(O)ccc21)C(=O)N[C@@H](CCC(=O)O)C(=O)N[C@@H](CC(=O)O)C(=O)N[C@@H](Cc1ccccc1)C(=O)O` [F11, ϕ-DS232DNDLS237LEDF-OH] ({FITC}-DSDNDLSLEDF-OH), the chemical stability entry in data set [1] was “stable”. Also, in data set [4], the Kd amounted to 7.6 ± 0.9 µM.
